According to patent US9855320B2, “Angiogenin for treatment of glaucoma” (CHUNG-ANG UNIVERSITY INDUSTRY-ACADEMIC COOPERATION …, priority 2011, dated 2018):

What was measured:
[1] = system: SDF-1; assay: Reverse transcription polymerase chain reaction on injured tissue of corneal chemical burn model, SDF-1; format: in vivo, rat; details: third day and seventh day after keratoconjunctival chemical injury
Protocol: (§1) Three days, and 1, 2, 4, and 8 weeks after injuring, corneal opacity and neoangiogenesis level were assessed in consideration of images of anterior ocular segment, and on the third day and the seventh day, the respective conjunctiva damaged parts were collected and then subjected to a reverse transcription polymerase chain reaction to assay expression of IL-1a, TGF-β, SDF-1, and caspase-3.
(§2) Tissues obtained from chronic intraocular pressure increase model and corneal chemical burn model were frozen, and then cut into small parts by using a fine knife. The tissue parts were treated with 1 ml of TRI reagent (Molecular Research Center, Inc.) and then, tissue and cell were lysed by homogenizer. The respective implication cDNA […] 0.2 mM dNTP, 10×buffer, 10 pmols primer, and 0.2 U Taq polymerase were mixed to obtain a volume of 20 μl, and then, PCR thermal cycler (a machine for PCR) was used for reaction for 5 minutes at 95° C., 40 second at 94° C., 40 seconds at 48 to 64° C., 40 seconds (35 cycles) at 72° C., and 10 minutes at 72° C. The amplified polymerase chain reaction product was identified by 1% agarose gel electrophoresis. β actin was used as a positive control for the polymerase chain reaction, and relative expression morphs of a target gene with respect to β actin expression were compared. […]

[2] = system: TGF-β; assay: Reverse transcription polymerase chain reaction on injured tissue of corneal chemical burn model, TGF-β; format: in vivo, rat; details: third day and seventh day after keratoconjunctival chemical injury
Protocol: as §1, §2

[3] = system: IL-1a; assay: Reverse transcription polymerase chain reaction on injured tissue of corneal chemical burn model, IL-1a; format: in vivo, rat; details: third day and seventh day after keratoconjunctival chemical injury
Protocol: as §1, §2

[4] = system: CD11b; assay: Reverse transcription polymerase chain reaction of CD11b in retinal tissue, chronic intraocular pressure increase model; format: in vivo; details: seventh day after episcleral venous electric ablation, compared to the control and the normal rat group
Protocol: (§3) 0.05 cc/50 g of Tiletimine and Zolazepam-mixed medicament (Zoletil) and Xylazine (Rompum) were mixed at a ratio of 1:1 and then administered to 20 rats by intramuscular injection, thereby anesthetizing the rats. A limbus periphery was divided into four portions, each of which was then subjected to 2 mm dissection at an interval of 90 degrees, and then, two radial conjunctival excisions were performed on upper dissection periphery. […] After surgical isolation of vein, the vein was lifted up by using 3 mm-width spatula to be spaced apart from the peripheral tissue, and then, was subjected to electric ablation while being careful for the peripheral tissue not to have any thermal damage or any mechanical damage due to contact. Intraocular pressure was consecutively measured three or more times by using Tonopen (Solan, Fla., USA), and only reliable intraocular pressure values within 5 percentile were recorded. […] Before the operation, and 3 days, and 1, 2, 4, and 8 weeks after the operation, intraocular pressure was measured, and the rats were sacrificed to extract eyes therefrom, which were then subjected to tissue examination and immunechemical staining with respect to Brn-3a and CD11b, and a reverse transcription polymerase chain reaction was used to measure CD11b value in retinal tissue. […]

[5] = system: nitric oxide (NO) concentration in aqueous humor; assay: NO concentration in aqueous humor after instillation (Griess assay); format: in vivo, rat; details: 1 hour after the initial instillation, 50 μg/ml, day-time and night-time test, rank among instillation groups
Protocol: Normal rat models were divided into 4 groups, each group consisting of 6 rats, that is, 12 eyes, and at 8 AM and 8 PM, each group was instilled with angiogenin 50 μg/ml, angiogenin fragment 50 μg/ml, and latanoprost 50 μg/ml, and 1, 3, and 6 hours after instillation, 15 to 20 μl of aqueous humor was extracted from two rats, that is, 4 eyes for each group. For the extraction of aqueous humor, first, rats were anesthetized, and then, corneal dissection was performed in a direction from at 9 o'clock outside each eye toward microkeratome, and then, a capillary tube was brought into contact through a dissection wound to absorb aqueous humor, which was then moved to an eppendroff tube and frozen-preserved at a temperature of −70 degrees. Thereafter, nitric oxide (NO) concentration in aqueous humor was measured by Griess assay (nitric oxide colorimetric assay kit, Biovision, USA). The aqueous humor was diluted 10 times and then mixed with the same amount of griess solution and reacted together for 10 minutes. The reaction product was moved onto a well plate and then, absorbance of nitrate, which is a NO formation reactant, was measured by using spectrophotometer at a wavelength of 540 nm and compared with a reference value to quantify the nitrate.

[6] = system: Brn-3a marked retinal ganglion cell; assay: Brn-3a immunochemical staining of retina, chronic intraocular pressure increase model; format: in vivo, rat
Protocol: as §3

angiogenin: recombinant human angiogenin (R&D systems); 14.4 kDa single chain protein of 123 amino acids, a ribonuclease inducing angiogenesis
SDF-1 expression compared to the control [1]: less expressed | TGF-β expression compared to the control [2]: less expressed | IL-1a expression compared to the control [3]: less expressed | CD11b expression in retina [4]: significantly higher | NO concentration increase in aqueous humor [5]: greatest NO concentration increase | density of Brn-3a marked retinal ganglion cell [6]: well maintained
